The record followed here is EP0321967A2, “Compounds active on the cardiovascular system” (ZAMBON GROUP S.p.A., priority 1987, dated 1989).

Molecules are shown by their SMILES.

One assay deals with α₁. Description: α1-antagonistic effect on phenylephrine-induced vasoconstriction of rabbit isolated aorta. The settings on record: antagonism of vasoconstriction induced by phenylephrine (α₁-agonist). It counts as cell-based. From the text:
The α₁-antagonistic effect has been evaluated as antagonistic effect (pA₂) on vasoconstriction induced by phenylephrine (α₁-agonist) on rabbit isolated aorta. For compound A the obtained pA₂ value was 7.7.

In a further assay the target is T1, D₁ receptor (Rattus norvegicus, UniProt P18901).
T1 construct: from tissue; host or cells: isolated membranes of rat striated muscle (so in the source); probably striatum is meant
T1 sequence (P18901 whole entry): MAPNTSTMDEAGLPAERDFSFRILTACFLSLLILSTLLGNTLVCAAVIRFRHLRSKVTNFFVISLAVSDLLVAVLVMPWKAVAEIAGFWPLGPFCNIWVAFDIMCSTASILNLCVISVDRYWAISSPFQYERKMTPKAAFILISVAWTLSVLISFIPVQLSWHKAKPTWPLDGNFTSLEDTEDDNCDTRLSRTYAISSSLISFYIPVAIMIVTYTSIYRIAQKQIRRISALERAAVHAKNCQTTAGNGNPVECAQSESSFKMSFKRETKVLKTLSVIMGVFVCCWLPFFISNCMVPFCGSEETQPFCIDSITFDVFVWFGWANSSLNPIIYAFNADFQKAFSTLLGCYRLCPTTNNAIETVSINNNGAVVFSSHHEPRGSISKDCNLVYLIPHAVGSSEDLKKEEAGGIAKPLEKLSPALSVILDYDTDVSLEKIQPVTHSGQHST
Description: Dopaminergic activity: receptor binding on isolated membranes of rat striated muscle, D1. The following applies: read-out: IC₅₀. The method, then:
(§1) The dopaminergic activity of compound A, for example, has been evaluated as percentage of receptor binding on isolated membranes of rat striated muscle; the IC₅₀ resulted to be 0.3 µM for D₂ receptor and 3 µM for D₁ receptor.

Another assay concerns the target T2, D₂ receptor (Rattus norvegicus, UniProt P61169).
T2 construct: from tissue; host or cells: isolated membranes of rat striated muscle (so in the source); probably striatum is meant
Kind of assay: Dopaminergic activity: receptor binding on isolated membranes of rat striated muscle, D2. The following applies: read-out: IC₅₀. The method, then:
as §1

Assay [1] deals with spontaneously hypertensive rat. Kind of assay: Systemic arterial pressure decrease after intravenous administration in spontaneously hypertensive rat. In kind it is in vivo. The settings on record: in comparison with the basal value. From the text:
The compounds object of the present invention after administration by intravenous route in spontaneously hypertensive rat at the dose of 0.033-0.53 µm/kg induce a meaningful systemic arterial pressure decrease comprised between 20 and 90 mmHg.

T2 sequence (P61169 whole entry): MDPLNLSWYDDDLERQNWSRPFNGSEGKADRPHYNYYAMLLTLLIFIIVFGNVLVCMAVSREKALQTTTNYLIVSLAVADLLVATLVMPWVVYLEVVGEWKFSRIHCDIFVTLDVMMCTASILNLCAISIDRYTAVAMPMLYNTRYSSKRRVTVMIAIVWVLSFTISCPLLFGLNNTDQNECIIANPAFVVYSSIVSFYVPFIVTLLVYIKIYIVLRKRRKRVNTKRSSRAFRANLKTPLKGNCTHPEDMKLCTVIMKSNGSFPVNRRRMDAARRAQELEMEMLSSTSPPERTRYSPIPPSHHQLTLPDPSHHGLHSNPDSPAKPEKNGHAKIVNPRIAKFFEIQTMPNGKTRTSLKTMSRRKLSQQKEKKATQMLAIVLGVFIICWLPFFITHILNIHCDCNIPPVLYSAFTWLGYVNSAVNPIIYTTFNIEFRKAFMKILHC

As to `CCCN(CCOc1ccccc1OC)CCc1ccc(O)c(O)c1.Cl` [compound A, N-[2-(2-methoxyphenoxy)ethyl]-N-propyl-dopamine hydrochloride], the pA₂ in the assay with α₁ was 7.7. In addition, the IC50 on D₁ receptor was 3000 nM; at D₂ receptor, 300 nM. In addition, the “reduction of systemic arterial pressure” value is reported as 51 mmHg in assay [1] (dose 12.5 µg/kg) and 89 mmHg in assay [1] (dose 200 µg/kg).
